Experimental data: the Deep4Chem optical property database

Assay: solvent given as SMILES

SMILES: COCCOCCOCCOCCOc1ccc(OCCOCCOCCOCCOC)c(C=O)c1
- absorption maximum (in CC(C)(C)O): 350 nm
- absorption maximum (in CC(C)CO): 350 nm
- absorption maximum (in CC(C)O): 349 nm
- absorption maximum (in CCCCO): 349 nm
- absorption maximum (in CCCO): 349 nm
- absorption maximum (in CCO): 349 nm
- absorption maximum (in CN(C)C=O): 350 nm
- absorption maximum (in CNC=O): 349 nm
- absorption maximum (in CO): 349 nm
- absorption maximum (in NC=O): 352 nm
- absorption maximum (in O): 351 nm

SMILES: c1ccc(-c2cc3cccc[n+]3[b-]3ccc(-c4cc[b-]5c(c4)c(-c4ccccc4)cc4cccc[n+]54)cc32)cc1
- absorption maximum (in C1CCCCC1): 517 nm

SMILES: CCCCN1C(=O)c2cc(Br)c3c4c(Br)cc5c6c(cc(Br)c(c7c(Br)cc(c2c37)C1=O)c64)C(=O)N(CCCC)C5=O
- absorption maximum (in ClC(Cl)Cl): 532 nm

SMILES: N#Cc1c(N2CCCCC2)cc(-c2cccc3ccccc23)c2c1-c1ccccc1C2=O
- absorption maximum (in C1CCOC1): 390 nm

SMILES: Cc1cc(O)c(C(=O)/C=C/c2ccc([N+](=O)[O-])cc2)c(=O)o1
- absorption maximum (in CC#N): 358 nm
- absorption maximum (in ClCCl): 361 nm

SMILES: Cc1ccc(-c2ccc(-c3ccc(-c4ccc(-c5ccc(C)cc5)cc4)c(/C(=C(/c4ccccc4)c4cc(-c5ccc(-c6ccc(C)cc6)cc5)ccc4-c4ccc(-c5ccc(C)cc5)cc4)c4ccccc4)c3)cc2)cc1
- absorption maximum (in C1CCOC1): 308 nm

SMILES: COC(=O)c1ccc(/C=C2\C=C(c3ccccc3)OC2=O)cc1
- absorption maximum (in C1COCCO1): 401 nm

SMILES: COc1ccc(-c2nc3c([nH]2)C2=CC(=O)S[C@]2(C)[C@@]2(C)SC(=O)C=C32)cc1
- absorption maximum (in CC#N): 392 nm

SMILES: N#Cc1cnc(-c2c3ccccc3c(-c3ncc(C#N)cn3)c3ccccc23)nc1
- absorption maximum (in CCO): 391 nm
- absorption maximum (in ClCCl): 394 nm

SMILES: C(#Cc1ccc(C#Cc2ccccc2)cc1)c1ccccc1
- absorption maximum (in ClC(Cl)Cl): 328 nm

SMILES: CC[N+]1(CC)CN2C(=N1)C(C(=O)O)=Cc1c(OC)ccc(OC)c12
- absorption maximum (in O): 368 nm

SMILES: c1ccc2c3c(ccc2c1)-c1c2ccccc2cc2cccc-3c12
- absorption maximum (in CCCCCCC): 449 nm

SMILES: Brc1ccc(N/C=C/C=[NH+]c2ccc(Br)cc2)cc1
- absorption maximum (in CS(C)=O): 386 nm

SMILES: CC(C)c1cc(C(C)C)c(B2c3cc(N4c5ccccc5C(C)(C)c5ccccc54)ccc3N(c3ccccc3)c3ccc(N4c5ccccc5C(C)(C)c5ccccc54)cc32)c(C(C)C)c1
- absorption maximum (in C1CCCCC1): 374.83 nm

SMILES: Cc1cc(-c2nc3c4ccccc4c4ccccc4c3n2-c2ccc(C(C)(C)C)cc2)ccc1-c1ccc(-c2c(-c3ccccc3)nc3ccccn23)cc1
- absorption maximum (in ClCCl): 364 nm

SMILES: C=CCNc1ccc2c(ccc3oc4cc(=[N+](C)C)ccc-4nc32)c1
- absorption maximum (in CC#N): 597 nm
- absorption maximum (in CCO): 601 nm
- absorption maximum (in ClCCl): 610 nm
- absorption maximum (in O): 579 nm

SMILES: Nc1cc2ccc3cccc4ccc(c1)c2c34
- absorption maximum (in CC#N): 338 nm
- absorption maximum (in CCCCOCCCC): 338 nm
- absorption maximum (in CO): 336 nm

SMILES: N#Cc1c(-n2c3ccccc3c3ccccc32)nc(-n2c3ccccc3c3ccccc32)c(C#N)c1-c1ccccc1
- absorption maximum (in c1cc(-c2cccc(-n3c4ccccc4c4ccccc43)c2)cc(-n2c3ccccc3c3ccccc32)c1): 374 nm

SMILES: c1cc2ccc1-c1ccc(cc1)-c1ccc(s1)-c1ccc(cc1)-c1ccc(cc1)-c1ccc(s1)-c1ccc(cc1)-c1ccc(cc1)-c1ccc-2s1
- absorption maximum (in C1CCOC1): 346 nm

SMILES: CC(C)(C)c1ccc2c(c1)c1cc(C(C)(C)C)ccc1n2-c1ccc(-c2nc3cc(C#N)c(C#N)cc3nc2-c2ccc(-n3c4ccc(C(C)(C)C)cc4c4cc(C(C)(C)C)ccc43)cc2)cc1
- absorption maximum (in Cc1ccccc1): 443 nm

SMILES: CCOC(=O)c1csc2[n+]1[B-](F)(F)OC(c1ccc(N(C)C)cc1)=N2
- absorption maximum (in C1CCOC1): 404 nm
- absorption maximum (in CC#N): 405 nm
- absorption maximum (in Cc1ccccc1): 406 nm
- absorption maximum (in ClCCl): 412 nm

SMILES: F[B-]1(F)n2c(-c3ccccc3)cnc2-c2cccc[n+]21
- absorption maximum (in C1CCCCC1): 412 nm
- absorption maximum (in C1CCOC1): 394 nm
- absorption maximum (in C1COCCO1): 394 nm
- absorption maximum (in CC#N): 384 nm
- absorption maximum (in CCCCCC): 412 nm
- absorption maximum (in CO): 382 nm
- absorption maximum (in ClC(Cl)Cl): 369 nm

SMILES: CN(C)c1ccc2c(c1)C(C)(C)C(=O)C=C2
- absorption maximum (in O): 413 nm

SMILES: [BH3-][P+]1(c2ccccc2)c2ccccc2-c2sc3ccccc3c21 (stereo unspecified)
- absorption maximum (in C1CCCCC1): 324 nm
- absorption maximum (in CC#N): 323 nm
- absorption maximum (in CCO): 323 nm
- absorption maximum (in ClCCl): 325 nm

SMILES: COCCOCCOCCOCC(COCCOCCOCCOC)Oc1cc(/C=C/c2ccc(C=C3C(=O)c4ccccc4C3=O)cc2)c(OC(COCCOCCOCCOC)COCCOCCOCCOC)cc1/C=C/c1ccc(C=C2C(=O)c3ccccc3C2=O)cc1
- absorption maximum (in ClCCl): 489 nm

SMILES: FC(F)(F)C(F)(F)C(F)(F)C1=NC2=C(Sc3ccccc3)C=C3c4cc(Sc5ccccc5)c5nc(C(F)(F)C(F)(F)C(F)(F)F)nc6c(Sc7ccccc7)cc(c4c56)=C4C=C(Sc5ccccc5)C(=N1)C2C34 (stereo unspecified)
- absorption maximum (in C1CCOC1): 565 nm

SMILES: O=c1oc2ccccc2c2c1c(=O)oc1cc(O)ccc12
- absorption maximum (in CS(C)=O): 376 nm
- absorption maximum (in ClCCl): 374 nm

SMILES: c1ccc2c(c1)oc1nc3oc4ccc(-n5c6ccccc6c6cc(-n7c8ccccc8c8ccccc87)ccc65)cc4c3cc12
- absorption maximum (in ClC(Cl)Cl): 354 nm

SMILES: CCCCN1/C(=C/C=C/C2=[N+](C)c3ccccc3C2(C)C)C(C)(C)c2c1ccc1ccccc21
- absorption maximum (in CS(C)=O): 572 nm

SMILES: F[B-]1(F)OC(C#Cc2ccccc2)=CC(c2ccccc2)=[O+]1
- absorption maximum (in ClCCl): 401 nm

SMILES: F[B-]1(F)N(c2ccccc2)c2cccc3ccc4ccc[n+]1c4c23
- absorption maximum (in ClCCl): 465 nm

SMILES: Cc1ccc(N2C(c3ccccc3N)=NC(c3ccccc3)C2c2ccccc2)cc1 (stereo unspecified)
- absorption maximum (in Cc1ccccc1): 282 nm

SMILES: S=P1(c2ccccc2)C(c2ccccc2)=Cc2cc3ccccc3cc21 (stereo unspecified)
- absorption maximum (in ClCCl): 387 nm

SMILES: O=C(O)COc1cccc(-c2c3nc(cc4ccc([nH]4)c(-c4cccc(OCC(=O)O)c4)c4nc(cc5ccc2[nH]5)CC4)CC3)c1
- absorption maximum (in CS(C)=O): 736 nm

SMILES: COC(=O)c1ccc(C2=C(/C=C/c3ccc(OC)cc3)O[B-](F)(F)[O+]=C2/C=C/c2ccc(OC)cc2)cc1
- absorption maximum (in ClCCl): 507 nm

SMILES: CC1(C)C(/C=C/C2=C(Cl)C(=C/C=C3/N(Cc4ccccc4)c4ccccc4C3(C)C)/CCC2)=[N+](Cc2ccccc2)c2ccccc21
- absorption maximum (in CO): 784 nm
